The source of these data is patent US8993619B2, “Cyclic bridgehead ether DGAT1 inhibitors” (Novartis AG, priority 2012, dated 2015).

Each structure is given as a SMILES string.

One assay deals with T1, DGAT1 in C2C12 cells (Mus musculus, UniProt Q9Z2A7).
T1 construct: endogenous in cells; host or cells: C2C12 mouse skeletal muscle cells
T1 sequence (Q9Z2A7 1-498): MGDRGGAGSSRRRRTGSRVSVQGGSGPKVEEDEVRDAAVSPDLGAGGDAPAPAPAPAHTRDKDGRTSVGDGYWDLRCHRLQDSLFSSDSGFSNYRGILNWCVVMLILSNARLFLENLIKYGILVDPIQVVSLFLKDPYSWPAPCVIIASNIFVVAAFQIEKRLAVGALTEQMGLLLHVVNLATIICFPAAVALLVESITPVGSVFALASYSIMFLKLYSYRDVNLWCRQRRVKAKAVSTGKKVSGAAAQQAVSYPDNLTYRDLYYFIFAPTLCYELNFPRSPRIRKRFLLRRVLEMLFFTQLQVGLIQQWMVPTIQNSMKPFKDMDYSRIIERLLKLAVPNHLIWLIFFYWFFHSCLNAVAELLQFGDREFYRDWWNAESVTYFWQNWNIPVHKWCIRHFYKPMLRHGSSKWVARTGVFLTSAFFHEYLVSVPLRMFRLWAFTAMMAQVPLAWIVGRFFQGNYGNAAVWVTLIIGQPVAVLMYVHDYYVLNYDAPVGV
Put plainly: Cellular assay to measure activity of DGAT1 inhibitors in mammalian cells (C2C12). Type of assay: cell-based. The following applies: C2C12 mouse skeletal muscle cells, 250 μM oleate, 2 h, LC/MS readout. How it is done:
C2C12 cells are an immortal mouse skeletal muscle cell line showing an 8-fold enrichment form DGAT1 versus DGAT2. C2C12 cells were routinely cultured in 150 cm2 flasks with DMEM (25 mM glucose) containing 10% FBS, 4 m M L-glutamine, 100 U/ml penicillin and 100 μg/ml streptomycin (30 ml per flask), at 37° C., 5% CO2 and 95% humidity. All studies were performed on cells at passage 10 or less.
C2C12 cells were seeded in 96-well plates in DMEM containing […] glucose and 10% FBS, 18 h (at 37° C.) prior to assay (all wells of the plate are used). […] Compounds were added at 1:3 dilution, 11 points and DMSO control, the starting concentration was usually 40 μM. Each point was dosed in quadruplicate allowing 2 compounds to be dosed per plate. The medium was removed at the end of the incubation and 200 μl/well of 1-butanol added. The 1-butanol contained an internal standard, tripalmitolein (2 μM). The plates were sealed with an adhesive plate sealer and left at room temperature for at least 30 min, then spun down at 209×g for 5 min.
Butanolic extracts were transferred to 384-well LC-MS plates (80 μl/well) and the plate heatsealed with a foil plate sealer. The 384-well plates containing sample were spun down at 209×g for 5 min prior to loading on the LC-MS.
Where indicated, tripalmitolein was used as an internal standard to control for instrument variation. HPLC conditions as above.

The next assay has as its target T2, human (His)6DGAT1 (Homo sapiens, UniProt O75907).
T2 construct: made in house; host or cells: Sf9 insect cells (membrane preparation)
T2 sequence (O75907 1-488): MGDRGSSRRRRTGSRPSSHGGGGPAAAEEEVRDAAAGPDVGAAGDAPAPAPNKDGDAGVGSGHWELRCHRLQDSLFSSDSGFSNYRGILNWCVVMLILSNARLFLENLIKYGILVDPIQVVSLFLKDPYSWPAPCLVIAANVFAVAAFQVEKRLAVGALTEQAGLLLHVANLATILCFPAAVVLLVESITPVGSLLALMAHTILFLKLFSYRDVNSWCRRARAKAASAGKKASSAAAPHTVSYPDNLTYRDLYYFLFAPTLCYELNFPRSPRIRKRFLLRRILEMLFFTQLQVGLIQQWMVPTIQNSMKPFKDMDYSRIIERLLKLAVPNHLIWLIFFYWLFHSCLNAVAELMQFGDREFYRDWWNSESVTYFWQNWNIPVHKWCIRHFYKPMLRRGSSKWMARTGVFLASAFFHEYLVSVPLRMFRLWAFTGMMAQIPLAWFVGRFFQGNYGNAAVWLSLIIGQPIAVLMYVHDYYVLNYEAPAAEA
Nature of the assay: DGAT1 Inhibition Assay. Type of assay: biochemical. Particulars: membrane preparation from Sf9 cells overexpressing human (His)6DGAT1; LC/MS/MS readout. Here is the method: The enzyme preparation used in this assay is a membrane preparation from Sf9 cells overexpressing human (His)6DGAT1. During all steps samples were chilled to 4° C. Sf9 cells expressing human (His)6DGAT1 were thawed at room temperature and re-suspended at a 10:1 ratio (mL buffer/g of cells) in 50 mM HEPES, 1× Complete Protease Inhibitor, pH 7.5. The re-suspended pellet was homogenized for 1 min using a Brinkman PT 10/35 homogenizer with a 20 mm generator. Cells were lysed using Avestin Emulsiflex (chilled to 4° C.) at 10000-15000 psi. Lysate was centrifuged at 100,000×g for 1 h at 4° C. Supernatant was removed and pellets were re-suspended in 50 mM HEPES, 1× Complete Protease Inhibitor, pH 7.5 at ⅙ the volume of supernatant. Re-suspended pellets were pooled and homogenized with 10 strokes of a Glas-Col motor driven teflon pestle on setting 70. The protein concentration of the membrane preparation was quantified using BCA protein assay with 1% SDS. The membrane preparation was aliquoted, frozen on dry ice, and stored at −80° C.
For 50 mL, 25 mL of 0.2 M HEPES stock buffer, 0.5 mL of 1 M MgCl2 ([…]), and 24.5 mL of milli-Q H2O are added to the 55 mL Wheaton Potter-Elvehjem homogenizer. Enzyme preparation (0.1 mL) is added to buffer and the mixture is homogenized with 5 strokes on ice using the Glas-Col variable speed homogenizer system on setting 70.
For 50 mL, 0.5 mL 10 mM diolein is added to 9.5 mL of EtOH in a 50 mL Falcon screw cap conical centrifuge tube. Five mL of 10 mM sodium acetate pH 4.5 is added followed by 0.5 mL of 10 mM oleoyl-CoA. Finally, the remaining 4.5 mL of 10 mM sodium acetate pH 4.5 is added followed by 30 mL of milli-Q H20. The solution should be gently agitated by hand to induce mixing. The final concentrations of EtOH and sodium acetate are 20% and 2 mM, respectively.
Dry compounds are dissolved in the appropriate volume of DMSO to a final concentration of 10 mM. […] All dilutions are performed in DMSO in a Greiner 384-well microplate. • 1. 2 μL of compound in DMSO is added to the appropriate wells. […] 25 μL of enzyme mix is added to all wells and plate(s) are incubated for 10 min at RT. • 3. […] Plate(s) are vortexed using Troemner multi-tube vortexer (setting 7 for 10 sec). • 4. 25 μL of substrate mix is added to all wells. Plate(s) are vortexed using Troemner multi-tube vortexer (setting 7 for 10 sec). Plate(s) are incubated for 30 min at RT. • 5. 10 μL of 20% acetic acid quench is added to all wells. Plate(s) are vortexed using Troemner multi-tube vortexer (setting 7 for 10 sec). • 6. 50 μL of 1-butanol w/ glyceryl tripalmitoleate internal standard is added to all wells. • 7. Plate(s) are sealed with super pierce strong plate sealer using the thermo-sealer. • 8. Plate(s) are vortexed using Troemner multi-tube vortexer (setting 10 for 5 min). • 9. Plate(s) are centrifuged at 162×g (1000 rpm for GH-3.8 rotor) for 5 min using Beckman GS-6R tabletop centrifuge.
Where indicated, tripalmitolein was used as an internal standard to control for instrument variation.
Column: Thermo Betabasic 4, 2.1×20 mm
Solvent: 10 mM Ammonium Formate, 0.1% Formic Acid, 2% water, 98% Methanol
Isocratic run 0.5 ml per minute
Data is converted to % inhibition prior to curve fitting using the following equation: […]

The IC50 is the concentration at which inhibition is half-maximal. Higher therefore signals weaker potency in that assay. `CC(C)(C)c1nnc(Nc2ccc(-c3ccc(C45CCC(CC(=O)O)(CC4)OC5)cc3)nc2)o1` [Example 1, 2-(4-(4-(5-(5-tert-butyl-1,3,4-oxadiazol-2-ylamino)pyridin-2-yl)phenyl)-2-oxabicyclo[2.2.2]octan-1-yl)acetic acid]: the IC50 was found to be 288 nM on DGAT1 in C2C12 cells and 345 nM against human (His)6DGAT1.
As to `O=C(O)CC12CCC(c3ccc(-c4ccc(Nc5nnc(C6CCC6)s5)cn4)cc3)(CC1)CO2` [Example 3, 2-(4-(4-(5-((5-cyclobutyl-1,3,4-thiadiazol-2-yl)amino)pyridin-2-yl)phenyl)-2-oxabicyclo[2.2.2]octan-1-yl)acetic acid], the IC50 at DGAT1 in C2C12 cells is 15 nM; against human (His)6DGAT1, 53.5 nM.
Consider `O=C(O)CC12CCC(c3ccc(-c4cnc(Nc5nnc(C6CCC6)s5)nc4)cc3)(CC1)CO2` [Example 4, 2-(4-(4-(2-(5-cyclobutyl-1,3,4-thiadiazol-2-ylamino)pyrimidin-5-yl)phenyl)-2-oxabicyclo[2.2.2]octan-1-yl)acetic acid], for which the IC50 against DGAT1 in C2C12 cells turned out to be 2500 nM; on human (His)6DGAT1, 14000 nM.
As to `O=C(O)CC12CCC(c3ccc(-c4ccc(Nc5nnc(C6CCC6)s5)nc4)cc3)(CC1)CO2` [Example 5, 2-(4-(4-(6-((5-cyclobutyl-1,3,4-thiadiazol-2-yl)amino)pyridin-3-yl)phenyl)-2-oxabicyclo[2.2.2]octan-1-yl)acetic acid], the values for the IC50 against DGAT1 in C2C12 cells and at human (His)6DGAT1 were 1240 nM and 375 nM, respectively.
Consider `O=C(O)CC12CCC(c3ccc(-c4ccc(Nc5nnc(C6CCC6)s5)cc4)cc3)(CC1)CO2` [Example 6, 2-(4-(4′-(5-cyclobutyl-1,3,4-thiadiazol-2-ylamino)biphenyl-4-yl)-2-oxabicyclo[2.2.2]octan-1-yl)acetic acid], for which the values for the IC50 at DGAT1 in C2C12 cells and against human (His)6DGAT1 were 2 nM and 12.5 nM, respectively.
Regarding `CC(C)(C)c1nnc(Nc2ccc(-c3ccc(C45CCC(CC(=O)O)(CC4)OC5)cc3)cc2)o1` [Example 8, 2-(4-(4′-(5-tert-butyl-1,3,4-oxadiazol-2-ylamino)biphenyl-4-yl)-2-oxabicyclo[2.2.2]octan-1-yl)acetic acid], the IC50 on DGAT1 in C2C12 cells stood at 9 nM; against human (His)6DGAT1 it was 99 nM.
Take `O=C(O)CC12CCC(c3ccc(-c4ccc(Nc5nnc(C6CC6)o5)cc4)cc3)(CC1)CO2` [Example 9, 2-(4-(4′-((5-cyclopropyl-1,3,4-oxadiazol-2-yl)amino)-[1,1′-biphenyl]-4-yl)-2-oxabicyclo[2.2.2]octan-1-yl)acetic acid]: the IC50 against DGAT1 in C2C12 cells (heading: DGAT1-C2C12 IC50) is 528 nM; against human (His)6DGAT1, 230000 nM.
For `Cc1nc(C(=O)Nc2ccc(-c3ccc(C45CCC(CC(=O)O)(CC4)OC5)cc3)cc2)c(C(F)(F)F)o1` [Example 10, 2-(4-(4′-(2-methyl-5-(trifluoromethyl)oxazole-4-carboxamido)-[1,1′-biphenyl]-4-yl)-2-oxabicyclo[2.2.2]octan-1-yl)acetic acid], the IC50 is 56 nM on DGAT1 in C2C12 cells and 360 nM against human (His)6DGAT1.
Regarding `Cc1nc(C(=O)Nc2ccc(-c3ccc(C45CCC(CC(=O)O)(CC4)OC5)cc3)nc2)c(C(F)(F)F)o1` [Example 12, 2-(4-(4-(5-(2-methyl-5-(trifluoromethyl)oxazole-4-carboxamido)pyridin-2-yl)phenyl)-2-oxabicyclo[2.2.2]octan-1-yl)acetic acid], it took 878 nM to reach half-maximal inhibition against human (His)6DGAT1 (IC50).
As for `CC(C)(C)c1cnc(Nc2ccc(-c3ccc(C45CCC(CC(=O)O)(CC4)OC5)cc3)nc2)o1` [Example 14, 2-(4-(4-(5-((5-(tert-butyl)oxazol-2-yl)amino)pyridin-2-yl)phenyl)-2-oxabicyclo[2.2.2]octan-1-yl)acetic acid], the IC50 turned out to be 108 nM against DGAT1 in C2C12 cells and 130 nM against human (His)6DGAT1.
`CC(C)(C)c1cnc(Nc2ccc(-c3ccc(C45CCC(CC(=O)O)(CC4)OC5)cc3)cc2)o1` [Example 15, 2-(4-(4′-((5-(tert-butyl)oxazol-2-yl)amino)-[1,1′-biphenyl]-4-yl)-2-oxabicyclo[2.2.2]octan-1-yl)acetic acid]: the IC50 was 7 nM against DGAT1 in C2C12 cells and 44 nM against human (His)6DGAT1.
In the case of `CC(C)Cc1nnc(Nc2ccc(-c3ccc(C45CCC(CC(=O)O)(CC4)OC5)cc3)cc2)o1` [Example 16, 2-(4-(4′-((5-isobutyl-1,3,4-oxadiazol-2-yl)amino)-[1,1′-biphenyl]-4-yl)-2-oxabicyclo[2.2.2]octan-1-yl)acetic acid], the IC50 against DGAT1 in C2C12 cells was found to be 38 nM; on human (His)6DGAT1 it was 60 nM.
The corresponding values for `CC(C)(C)Cc1nnc(Nc2ccc(-c3ccc(C45CCC(CC(=O)O)(CC4)OC5)cc3)cc2)o1` [Example 17, 2-(4-(4′-((5-neopentyl-1,3,4-oxadiazol-2-yl)amino)-[1,1′-biphenyl]-4-yl)-2-oxabicyclo[2.2.2]octan-1-yl)acetic acid] are 31 nM and 53 nM.
The like results for `CCc1nc(C)c(C(=O)Nc2ccc(-c3ccc(C45CCC(CC(=O)O)(CC4)CO5)cc3)cc2)o1` [Example 18, 2-(1-(4′-(2-ethyl-4-methyloxazole-5-carboxamido)-[1,1′-biphenyl]-4-yl)-2-oxabicyclo[2.2.2]octan-4-yl)acetic acid] were, in that order, 160 nM and 2900 nM.
